# Reference: patent publication US7138361B2, “Herbicidal heterocycles” (E. I. du Pont de Nemours and Company, priority 2000, dated 2006)
# Tests used:
# Assay type in all cases: in vivo
# [1] = test system: corn (Zea mays); experiment: Test B postemergence; settings: 13 to 15 days
# In short: (§1)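 Post-treatment, species sat 13–15 days under greenhouse conditions before visual scoring against controls, 0 (no effect) through 100 (complete control). Application preemergence to sown seeds or postemergence at 1- to 4-leaf stage, using a non-phytotoxic solvent/surfactant formulation.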
# [2] = test system: wild oat (Avena fatua); experiment: Test B postemergence; settings: 13 to 15 days
# In short: as §1
# [3] = test system: Surinam grass (Brachiaria decumbens); experiment: Test B postemergence; settings: 13 to 15 days
# In short: as §1
# [4] = test system: velvetleaf (Abutilon theophrasti); experiment: Test B postemergence; settings: 13 to 15 days
# In short: as §1
# [5] = test system: crabgrass (Digitaria sanguinalis); experiment: Test B postemergence; settings: 13 to 15 days
# In short: as §1
# [6] = test system: lambsquarters (Chenopodium album); experiment: Test B postemergence; settings: 13 to 15 days
# In short: as §1
# [7] = test system: blackgrass (Alopecurus myosuroides); experiment: Test B postemergence; settings: 13 to 15 days
# In short: as §1
# [8] = test system: wheat (Triticum aestivum); experiment: Test B postemergence; settings: 13 to 15 days
# In short: as §1
# [9] = test system: barnyardgrass (Echinochloa crus-galli); experiment: Test B postemergence; settings: 13 to 15 days
# In short: as §1
# [10] = test system: giant foxtail (Setaria faberii); experiment: Test B postemergence; settings: 13 to 15 days
# In short: as §1
# [11] = test system: pigweed (Amaranthus retroflexus); experiment: Test B postemergence; settings: 13 to 15 days
# In short: as §1
# [12] = test system: morning glory (Ipomoea hederacea); experiment: Test B postemergence; settings: 13 to 15 days
# In short: as §1
# [13] = test system: cocklebur (Xanthium strumarium); experiment: Test B postemergence; settings: 13 to 15 days
# In short: as §1
# [14] = test system: corn (Zea mays); experiment: Test B preemergence
# In short: as §1
# [15] = test system: Surinam grass (Brachiaria decumbens); experiment: Test B preemergence
# In short: as §1
# [16] = test system: crabgrass (Digitaria sanguinalis); experiment: Test B preemergence
# In short: as §1
# [17] = test system: lambsquarters (Chenopodium album); experiment: Test B preemergence
# In short: as §1
# [18] = test system: rice (Oryza saliva); experiment: Test B preemergence
# In short: as §1
# [19] = test system: barnyardgrass (Echinochloa crus-galli); experiment: Test B preemergence
# In short: as §1
# [20] = test system: giant foxtail (Setaria faberii); experiment: Test B preemergence
# In short: as §1
# [21] = test system: pigweed (Amaranthus retroflexus); experiment: Test B preemergence
# In short: as §1
# [22] = test system: morning glory (Ipomoea hederacea); experiment: Test B preemergence
# In short: as §1
# [23] = test system: cocklebur (Xanthium strumarium); experiment: Test B preemergence
# In short: as §1
# [24] = test system: duck salad (Heteranthera limosa); experiment: Test B flooded paddy test; settings: Rate 1000 g/ha, scale of 0 to 100 where 0 is no effect and 100 is complete control, visually evaluated after 13 to 15 days
# Procedure: (§2) At the same time, plants selected from these crop and weed species and also blackgrass (Alopecurus myosuroides), wheat (Triticum aestivum) and wild oat (Avena fatua) were treated with postemergence applications of test chemicals formulated in the same manner. Plants ranged in height from 2 to 18 cm (1- to 4-leaf stage) for postemergence treatments. Plant species in the flooded paddy test consisted of rice (Oryza saliva), smallflower flatsedge (Cyperus difformis), duck salad (Heteranthera limosa) and barnyardgrass (Echinochloa crus-galli) grown to the 2-leaf stage for testing. Treated plants and controls were maintained in a greenhouse for 13 to 15 days, after which time all species were compared to controls and visually evaluated. Plant response ratings, summarized in Table B, are based on a scale of 0 to 100 where 0 is no effect and 100 is complete control. A dash (-) response means no test result.
# [25] = test system: smallflower flatsedge (Cyperus difformis); experiment: Test B flooded paddy test; settings: Rate 1000 g/ha, scale of 0 to 100 where 0 is no effect and 100 is complete control, visually evaluated after 13 to 15 days
# Procedure: as §2
# [26] = test system: rice (Oryza saliva); experiment: Test B flooded paddy test; settings: Rate 1000 g/ha, scale of 0 to 100 where 0 is no effect and 100 is complete control, visually evaluated after 13 to 15 days
# Procedure: as §2
# [27] = test system: barnyardgrass (Echinochloa crus-galli); experiment: Test B flooded paddy test; settings: Rate 1000 g/ha, scale of 0 to 100 where 0 is no effect and 100 is complete control, visually evaluated after 13 to 15 days
# Procedure: as §2
# [28] = test system: duck salad (Heteranthera limosa); experiment: Test C flooded paddy test; settings: for Ducksalad plant response rating: Flooded Paddy, scale 0 to 100, 0 no effect, 100 complete control; for Plant response rating, Ducksalad: flooded paddy test, scale 0 to 100 (0 no effect, 100 complete control)
# In short: (§3)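 Greenhouse-maintained for 12 to 14 days after treatment, the paddy plants (2-leaf stage at application) were scored visually against controls. A score of 0 denotes no effect and a score of 100 denotes complete control.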
# [29] = test system: smallflower flatsedge (Cyperus difformis); experiment: Test C flooded paddy test; settings: for Flatsedge plant response rating: Flooded Paddy, scale 0 to 100, 0 no effect, 100 complete control; for Plant response rating, Flatsedge: flooded paddy test, scale 0 to 100 (0 no effect, 100 complete control)
# In short: as §3
# [30] = test system: rice (Oryza saliva); experiment: Test C flooded paddy test; settings: for Rice plant response rating: Flooded Paddy, scale 0 to 100, 0 no effect, 100 complete control; for Plant response rating, Rice: flooded paddy test, scale 0 to 100 (0 no effect, 100 complete control)
# In short: as §3
# [31] = test system: barnyardgrass (Echinochloa crus-galli); experiment: Test C flooded paddy test; settings: for Barnyardgrass plant response rating: Flooded Paddy, scale 0 to 100, 0 no effect, 100 complete control; for Plant response rating, Barnyardgrass: flooded paddy test, scale 0 to 100 (0 no effect, 100 complete control)
# In short: as §3
# [32] = test system: velvetleaf (Abutilon theophrasti); experiment: Test B preemergence
# In short: as §1
# [33] = Rate 125 g/ha, scale 0 (no effect) to 100 (complete control)
# [34] = Rate 500 g/ha, scale 0 to 100, 0 is no effect, 100 is complete control
# [35] = Preemergence, Rate 500 g/ha, scale 0 to 100, 0 no effect, 100 complete control
# [36] = preemergence, Rate 125 g/ha, scale 0 to 100, 0 no effect, 100 complete control
# [37] = preemergence, Rate 125 g/ha, scale of 0 to 100 where 0 is no effect and 100 is complete control, 13 to 15 days
smiles,measurement,setting,value
O=C1C(n2cccn2)SCN1c1cccc(C(F)(F)F)c1 (centres unmarked) [Compound 18],"Plant response rating, Corn",[1]; [33],0
same,"Plant response rating, Corn",[1]; [34],0
same,"Plant response rating, Wild Oat",[2]; [33],0
same,"Plant response rating, Wild Oat",[2]; [34],0
same,"Plant response rating, Surinam grass",[3]; [33],0
same,"Plant response rating, Surinam grass",[3]; [34],0
same,"Plant response rating, Velvetleaf",[4]; [33],0
same,"Plant response rating, Velvetleaf",[4]; [34],20
same,"Plant response rating, Crabgrass",[5]; [33],0
same,"Plant response rating, Crabgrass",[5]; [34],0
same,"Plant response rating, Lambsquarters",[6]; [33],60
same,"Plant response rating, Lambsquarters",[6]; [34],70
same,"Plant response rating, Blackgrass",[7]; [33],0
same,"Plant response rating, Blackgrass",[7]; [34],0
same,"Plant response rating, Wheat",[8]; [33],0
same,"Plant response rating, Wheat",[8]; [34],0
same,"Plant response rating, Barnyardgrass",[9]; [33],0
same,"Plant response rating, Barnyardgrass",[9]; [34],0
same,"Plant response rating, Foxtail, Giant",[10]; [33],0
same,"Plant response rating, Foxtail, Giant",[10]; [34],0
same,"Plant response rating, Pigweed",[11]; [33],0
same,"Plant response rating, Pigweed",[11]; [34],0
same,"Plant response rating, Morningglory",[12]; [33],10
same,"Plant response rating, Morningglory",[12]; [34],10
same,"Plant response rating, Cocklebur",[13]; [33],0
same,"Plant response rating, Cocklebur",[13]; [34],20
same,"Plant response rating, Corn",[14]; [35],0
same,"Plant response rating, Corn",[14]; [36],0
same,"Plant response rating, Surinam grass",[15]; [35],0
same,"Plant response rating, Surinam grass",[15]; [36],0
same,"Plant response rating, Crabgrass",[16]; [35],0
same,"Plant response rating, Crabgrass",[16]; [36],0
same,"Plant response rating, Lambsquarters",[17]; [36],0
same,"Plant response rating, Rice",[18]; [35],0
same,"Plant response rating, Rice",[18]; [36],0
same,"Plant response rating, Barnyardgrass",[19]; [35],0
same,"Plant response rating, Barnyardgrass",[19]; [36],0
same,"Plant response rating, Foxtail, Giant",[20]; [35],0
same,"Plant response rating, Foxtail, Giant",[20]; [36],0
same,"Plant response rating, Pigweed",[21]; [35],0
same,"Plant response rating, Pigweed",[21]; [36],0
same,"Plant response rating, Morningglory",[22]; [35],0
same,"Plant response rating, Morningglory",[22]; [36],0
same,"Plant response rating, Cocklebur",[23]; [35],0
same,"Plant response rating, Cocklebur",[23]; [36],0
same,"Plant response rating, Ducksalad",[24],0
same,"Plant response rating, Flatsedge",[25],0
same,"Plant response rating, Rice",[26],0
same,"Plant response rating, Barnyardgrass",[27],0
CC(C)(C)c1ccn(C2CCN(c3ccc(F)c(Cl)c3)C2=O)n1 (centres unmarked) [Compound 46],"Plant response rating, Corn",[1]; [33],0
same,"Plant response rating, Corn",[1]; [34],0
same,"Plant response rating, Wild Oat",[2]; [33],0
same,"Plant response rating, Wild Oat",[2]; [34],0
same,"Plant response rating, Surinam grass",[3]; [33],0
same,"Plant response rating, Surinam grass",[3]; [34],0
same,"Plant response rating, Velvetleaf",[4]; [33],0
same,"Plant response rating, Velvetleaf",[4]; [34],0
same,"Plant response rating, Crabgrass",[5]; [33],0
same,"Plant response rating, Crabgrass",[5]; [34],0
same,"Plant response rating, Lambsquarters",[6]; [33],0
same,"Plant response rating, Lambsquarters",[6]; [34],70
same,"Plant response rating, Blackgrass",[7]; [33],0
same,"Plant response rating, Blackgrass",[7]; [34],0
same,"Plant response rating, Wheat",[8]; [33],0
same,"Plant response rating, Wheat",[8]; [34],0
same,"Plant response rating, Barnyardgrass",[9]; [33],0
same,"Plant response rating, Barnyardgrass",[9]; [34],0
same,"Plant response rating, Foxtail, Giant",[10]; [33],0
same,"Plant response rating, Foxtail, Giant",[10]; [34],0
same,"Plant response rating, Pigweed",[11]; [33],0
same,"Plant response rating, Pigweed",[11]; [34],0
same,"Plant response rating, Morningglory",[12]; [33],0
same,"Plant response rating, Morningglory",[12]; [34],0
same,"Plant response rating, Cocklebur",[13]; [33],0
same,"Plant response rating, Cocklebur",[13]; [34],0
same,Ducksalad plant response rating,[28]; Rate 250 g/ha,20
same,Ducksalad plant response rating,[28]; Rate 500 g/ha,50
same,"Plant response rating, Ducksalad",[28]; Rate 62 g/ha,0
same,"Plant response rating, Ducksalad",[28]; Rate 125 g/ha,0
same,Flatsedge plant response rating,[29]; Rate 250 g/ha,90
same,Flatsedge plant response rating,[29]; Rate 500 g/ha,100
same,"Plant response rating, Flatsedge",[29]; Rate 62 g/ha,80
same,"Plant response rating, Flatsedge",[29]; Rate 125 g/ha,90
same,Rice plant response rating,[30]; Rate 250 g/ha,0
same,Rice plant response rating,[30]; Rate 500 g/ha,40
same,"Plant response rating, Rice",[30]; Rate 62 g/ha,0
same,"Plant response rating, Rice",[30]; Rate 125 g/ha,0
same,Barnyardgrass plant response rating,[31]; Rate 250 g/ha,50
same,Barnyardgrass plant response rating,[31]; Rate 500 g/ha,60
same,"Plant response rating, Barnyardgrass",[31]; Rate 62 g/ha,0
same,"Plant response rating, Barnyardgrass",[31]; Rate 125 g/ha,20
same,"Plant response rating, Corn",[14]; [35],0
same,"Plant response rating, Corn",[14]; [37],0
same,"Plant response rating, Surinam grass",[15]; [35],0
same,"Plant response rating, Surinam grass",[15]; [37],0
same,"Plant response rating, Velvetleaf",[32]; [35],0
same,"Plant response rating, Velvetleaf",[32]; [37],0
same,"Plant response rating, Crabgrass",[16]; [35],0
same,"Plant response rating, Crabgrass",[16]; [37],0
same,"Plant response rating, Lambsquarters",[17]; [35],100
same,"Plant response rating, Lambsquarters",[17]; [37],100
same,"Plant response rating, Rice",[18]; [35],0
same,"Plant response rating, Rice",[18]; [37],0
same,"Plant response rating, Barnyardgrass",[19]; [35],80
same,"Plant response rating, Barnyardgrass",[19]; [37],0
same,"Plant response rating, Foxtail, Giant",[20]; [35],0
same,"Plant response rating, Foxtail, Giant",[20]; [37],0
same,"Plant response rating, Pigweed",[21]; [35],100
same,"Plant response rating, Pigweed",[21]; [37],100
same,"Plant response rating, Morningglory",[22]; [37],0
same,"Plant response rating, Cocklebur",[23]; [35],0
same,"Plant response rating, Cocklebur",[23]; [37],0
same,"Plant response rating, Ducksalad",[24],70
same,"Plant response rating, Rice",[26],90
same,"Plant response rating, Barnyardgrass",[27],100
COc1cccc(N2CCC(n3ccc(C(C)(C)C)n3)C2=O)c1 (centres unmarked) [Compound 57],"Plant response rating, Ducksalad",[24],100
same,"Plant response rating, Flatsedge",[25],100
same,"Plant response rating, Rice",[26],90
same,"Plant response rating, Barnyardgrass",[27],100
